From PubChem BioAssay (NCI) come the findings set out here.

The structures appear in SMILES notation.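 Following 48 hours of exposure in 96-well plates, responses at five concentrations were used to interpolate endpoints linearly. GI50 marks 50% less growth. The concentration for full growth arrest is given as TGI.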

What all share (assay): NCI tumour cell line growth inhibition, 48 h
In test [1] the test system is COLO 205 colon.
Test [2] has as its system HCC-2998 colon.
For test [3], the system named is HL-60(TB) leukemia.
Test [4] deals with IGROV1 ovarian.
Test [5] deals with MDA-MB-231 breast.
Test [6] has as its system NCI-H226 lung.
Test [7] has as its system NCI-H460 lung.
The subject of test [8] is NCI/ADR-RES ovarian.
The subject of test [9] is OVCAR-3 ovarian.
Test [10] deals with RPMI-8226 leukemia.

Turning to `COc1ccc(C(=O)/C=C/c2ccc(Cl)cc2)cc1S(N)(=O)=O`, the GI50 was 2.03 µM in test [1]; 1.78 µM in test [2]; 3.08 µM in [3]; 2.67 µM in [4]; 3.48 µM in test [5]; 3.66 µM in test [6]. For the same molecule, the GI50 in [7] is 2.58 µM; in [8] it was 3.64 µM; in [9], 2.04 µM; in [10], 2.61 µM. In addition, the TGI was found to be 4.84 µM in test [1]; 3.65 µM in [2]; 8.77 µM in test [3]; 8.34 µM in test [4]; 11.7 µM in test [5]; 14.8 µM in test [6]. Besides, the TGI amounted to 6.39 µM in [7], 24 µM in test [8], 4.45 µM in test [9] and 6.53 µM in [10].
For `C1=C[C@@H]2c3ccc4cnccc4c3NC[C@@H]2C1`, the TGI in test [1], in test [2], in test [3], in [4], in test [6] and in test [7] was over 100 µM each time. The TGI in [8], in [9] and in test [10] was over 100 µM in each case.
Turning to `O=C1CCC/C=C\C[C@H]2C=C(Cl)C(=O)/C2=C/C[C@H](CCCCC(F)(F)F)OC(=O)CCC/C=C\C[C@H]2C=C(Cl)C(=O)/C2=C/C[C@H](CCCCC(F)(F)F)O1`, the GI50 is 0.246 µM in test [1]; 0.215 µM in [2]; 0.362 µM in test [3]; 0.231 µM in test [4]; 0.194 µM in [5]; 0.263 µM in test [6]. Besides, the GI50 is 0.257 µM in [7], 1.57 µM in test [8], 0.19 µM in [9] and 0.177 µM in [10]. In addition, the TGI in test [1] was found to be 0.859 µM; in test [2], 0.64 µM; in test [3], 3.6 µM; in [4], 0.791 µM; in [5] it was 0.504 µM; in test [6], 1.23 µM. Also, the TGI in [7] was found to be 1.03 µM; in test [8], 7.14 µM; in test [9], 0.485 µM; in test [10], 0.528 µM.
In the case of `COc1c(O)c2ccccc2c2cc(O)ccc12`, the TGI in test [1] is 31.5 µM; in test [2] it was 32.7 µM; in test [3], 27 µM; in test [4], 21.6 µM; in test [5], 19.4 µM; in test [6] it was 31.6 µM. The TGI came to 23.3 µM in [7], 29.5 µM in test [8], 19.2 µM in test [9] and 35.7 µM in [10].
Regarding `NC(=O)C/C=C/CC(N)=O`, the TGI in test [1], in test [2], in test [3], in [4], in test [5] and in [6] was over 100 µM in each case. The TGI in test [7], in test [8], in test [9] and in test [10] was over 100 µM in each case.
On to `COc1ccc(CCNc2nc3ccccc3c3[nH]c4ccccc4c23)cc1OC`, for which the GI50 in test [1] was 1.57 µM; in test [2] it was 1.6 µM; in [3], 1.65 µM; in test [5], 2.21 µM; in test [6], 7.82 µM; in test [7], 2.1 µM. For the same molecule, the GI50 in test [8] was 4.73 µM; in test [9], 1.98 µM; in test [10], 2.18 µM. Besides, the TGI turned out to be 3.46 µM in test [1]; 3.1 µM in test [2]; 3.88 µM in test [3]; 8.03 µM in test [5]; 25 µM in test [6]; 5.93 µM in test [7]. Further, the TGI in test [8] turned out to be 26 µM; in [9] it was 4.24 µM; in test [10], 5.24 µM.
Take `CCOP1(=O)OCC2OC(n3cnc4c(N)ncnc43)C(O)C2O1` (centres undefined): the TGI in [1], in test [3], in test [4], in test [5], in [6] and in test [7] was over 100 µM each time. Further, the TGI in test [8], in test [9] and in test [10] was over 100 µM in each case.
Take `Nc1nc2nc3c(nc2c(=O)[nH]1)CN(c1ccc(C(=O)O)cc1)C3=O`: the TGI in test [1], in test [2], in [4], in [5], in [6] and in [7] was over 100 µM in each case. Also, the TGI in [8] and in [10] was over 100 µM each time.
For `COc1ccc(C2SC(N)=Nc3c2c(C)nn3C(=O)c2ccncc2)cc1` (centres undefined), the TGI in test [1], in test [3], in test [4], in test [5], in test [6] and in test [7] was over 100 µM throughout. Moreover, the TGI in test [8], in test [9] and in [10] was over 100 µM each time.
Consider `COc1cc[c]([Hg][Cl])cc1`, for which the GI50 in test [1] is 2.06 µM; in test [2], 13.5 µM; in test [3], 3.08 µM; in test [4], 1.53 µM; in [5] it was 2.19 µM; in test [6], 22.9 µM. Further, the results for the GI50 in test [7], in test [8] and in test [10] were 10.3 µM, 11.7 µM and 3.39 µM, respectively. The TGI stood at 4 µM in [1]; 27.8 µM in test [2]; 7.67 µM in [3]; 3.92 µM in test [4]; 4.92 µM in test [5]; 50.6 µM in test [6]. Besides, the TGI was 25.5 µM in test [7], over 100 µM in test [8] and 14.7 µM in [10].
Turning to `Cc1c2c(n3c(nc4ccccc43)c1C#N)SCC2`, the TGI in test [3], in [4], in test [5], in test [6], in [7] and in test [8] was over 10 µM throughout. Besides, the TGI in [9] and in test [10] was over 10 µM each time.
